Legend:
Details in all cases: banded MIC grade
[1] = tested on: Aspergillus flavus; assay: Minimum inhibitory concentration, YAG medium; format: cell-based
Protocol: (§1) The compound was dissolved in DMSO to give a solution containing 5 mg/mL. Tubes were stored at −20° C. until required. On the day of testing thawed solutions were vortex mixed to ensure homogeneity. 30 μL of solution was removed and added to 570 μL of sterile water in a separate sterile Eppendorf. The thoroughly mixed solution was used to prepare a series of doubling dilutions in water, in a deep well plate. Thirteen replicate plates were prepared using a Minitrak by aspirating 20 μL from each well into eleven clear polystyrene 96 well plates. Spores of Aspergillus spp. […] All plates were incubated for 24 hrs at 35° C. Growth was assessed by monitoring the optical density at 485 nm for each well. […] MICs are recorded as mg/L.

[2] = tested on: Aspergillus niger; assay: Minimum inhibitory concentration, YAG medium; format: cell-based
Protocol: as §1

[3] = tested on: Aspergillus terreus; assay: Minimum inhibitory concentration, YAG medium; format: cell-based
Protocol: as §1

[4] = tested on: Aspergillus fumigatus; assay: Minimum inhibitory concentration, YAG medium; format: cell-based
Protocol: (§2) Between 1 and 5 mgs of compound were accurately weighed out into a sterile Eppendorf tube. The compound was dissolved in DMSO to give a solution containing 5 mg/mL. Tubes were stored at −20° C. until required.
(§3) On the day of testing thawed solutions were vortex mixed to ensure homogeneity. 30 μL of solution was removed and added to 570 μL of sterile water in a separate sterile Eppendorf. The thoroughly mixed solution was used to prepare a series of doubling dilutions in water, in a deep well plate. Thirteen replicate plates were prepared using a Minitrak by aspirating 20 μL from each well into eleven clear polystyrene 96 well plates.
(§4) Spores of Aspergillus spp. (Aspergillus fumigatus [two strains], Aspergillus terreus [two strains], Aspergillus niger and Aspergillus flavus) were harvested from cultures grown on Sabarauds agar for 5 days, and resuspended in PBS/Tween 80 to approx 1×10^7 cfu/mL. Each organism suspension was diluted in YAG medium (1% glucose, 1% ammonium chloride and 0.5% yeast extract) to 0.5-2×10^4cfu/mL. 80 μL of an organism suspension was added to each well of the plate containing drug dilutions.
(§5) This typically produced MIC plates with a drug range 50-0.05 mg/L and organism inocula of 1-2×10^4 cfu/mL for Aspergillus spp. All plates were incubated for 24 hrs at 35° C. Growth was assessed by monitoring the optical density at 485 nm for each well. The MIC of a compound is the lowest drug concentration that inhibits growth of an organism by >70% compared with a drug free control. MICs are recorded as mg/L. In cases where the MIC of an organism is […] the MIC is repeated using a concentration range of 0.5-0.0005 mg/L.

[5] = tested on: A. terreus 49; assay: Minimum inhibitory concentration, YAG medium; format: cell-based, Aspergillus terreus
Protocol: as §1

[6] = tested on: C. albicans; assay: Minimum inhibitory concentration, RPMI medium; format: cell-based
Protocol: as §1, with “Assays were also performed in RPMI medium (Roswell Park Memorial Media 1640). To perform MIC tests in this medium, dilutions” for “Spores”, “compounds are prepared in microtitre plates as described above.” for “Aspergillus spp.”, “24-48” for “24”, “The following organisms were tested: […]” for “MICs are recorded as mg/L.”

[7] = tested on: C. tropicalis; assay: Minimum inhibitory concentration, RPMI medium; format: cell-based
Protocol: as §1, with “Assays were also performed in RPMI medium (Roswell Park Memorial Media 1640). To perform MIC tests in this medium, dilutions” for “Spores”, “compounds are prepared in microtitre plates as described above.” for “Aspergillus spp.”, “24-48” for “24”, “The following organisms were tested: […]” for “MICs are recorded as mg/L.”

[8] = tested on: C. parapsilosis; assay: Minimum inhibitory concentration, RPMI medium; format: cell-based
Protocol: as §1, with “Assays were also performed in RPMI medium (Roswell Park Memorial Media 1640). To perform MIC tests in this medium, dilutions” for “Spores”, “compounds are prepared in microtitre plates as described above.” for “Aspergillus spp.”, “24-48” for “24”, “The following organisms were tested: […]” for “MICs are recorded as mg/L.”

[9] = tested on: A. fumigatus 210; assay: Minimum inhibitory concentration, YAG medium; format: cell-based, Aspergillus fumigatus
Protocol: as §2, §3, §4, §5

SMILES	MIC grade, A. FLAVUS, YAG media [1]	MIC grade, A. NIGER, YAG media [2]	MIC grade, A. TERREUS, YAG media [3]	MIC grade, A. FUMIGATUS, YAG media [4]	MIC grade, A. TERREUS 49, YAG media [5]	MIC grade, C. ALBICANS, RPMI media [6]	MIC grade, C. TROPICALIS, RPMI media [7]	MIC grade, C. PARAPSILOSIS, RPMI media [8]	MIC grade, A. FUMIGATUS 210, YAG media [9]
N#Cc1ccc(COCCC2=NN=C(N)SC2)cc1	3 (3: 0.2-1 mg/L)	4 (4: <0.2 mg/L)	4 (4: <0.2 mg/L)	4 (4: <0.2 mg/L)	4 (4: <0.2 mg/L)	2 (2: 5-20 mg/L)	1 (1: ≥20 mg/L)	2 (2: 5-20 mg/L)	4 (4: <0.2 mg/L)
CCCC(C)OCCC1=NN=C(N)SC1 (stereo not drawn)	2 (2: 1-5 mg/L)	4 (4: <0.2 mg/L)	3 (3: 0.2-1 mg/L)	2 (2: 1-5 mg/L)	2 (2: 1-5 mg/L)	2 (2: 5-20 mg/L)	1 (1: ≥20 mg/L)	3 (3: 1-5 mg/L)	3 (3: 0.2-1 mg/L)
Cc1ccc(OCCC2=NN=C(N)SC2)cc1	3 (3: 0.2-1 mg/L)	3 (3: 0.2-1 mg/L)	3 (3: 0.2-1 mg/L)	3 (3: 0.2-1 mg/L)	3 (3: 0.2-1 mg/L)	1 (1: ≥20 mg/L)	2 (2: 5-20 mg/L)	4 (4: <1 mg/L)	4 (4: <0.2 mg/L)
CCCOc1ccc(CCC2=NN=C(N)SC2)cc1	3 (3: 0.2-1 mg/L)	4 (4: <0.2 mg/L)	4 (4: <0.2 mg/L)	4 (4: <0.2 mg/L)	4 (4: <0.2 mg/L)	4 (4: <1 mg/L)	3 (3: 1-5 mg/L)	4 (4: <1 mg/L)	4 (4: <0.2 mg/L)
COc1ccc(COCCC2=NN=C(N)SC2)cc1	3 (3: 0.2-1 mg/L)	3 (3: 0.2-1 mg/L)	3 (3: 0.2-1 mg/L)	3 (3: 0.2-1 mg/L)	3 (3: 0.2-1 mg/L)	2 (2: 5-20 mg/L)	2 (2: 5-20 mg/L)	3 (3: 1-5 mg/L)	3 (3: 0.2-1 mg/L)
NC1=NN=C(CCOCc2ccc(-c3ccccc3)cc2)CS1	3 (3: 0.2-1 mg/L)	3 (3: 0.2-1 mg/L)	3 (3: 0.2-1 mg/L)	1 (1: ≥5 mg/L)	3 (3: 0.2-1 mg/L)	1 (1: ≥20 mg/L)	2 (2: 5-20 mg/L)	2 (2: 5-20 mg/L)	1 (1: ≥5 mg/L)

Reference: patent US20180201592A1, “2-AMINO-1,3,4-THIADIAZINE AND 2-AMINO-1,3,4-OXADIAZINE BASED ANTIFUNGAL AGENTS” (F2G Limited, priority 2015, published 2018)
